Experimental data reported in patent publication EP0908457B1, “3-(1,2-benzisothiazol- and isoxazol-5-Y1)-2,4(1H,3H)-pyrimidinedione or thione and 3-(1,2-benzisothiazol- and isoxazol-5-y1)-4(3H)-pyrimidinone or thione herbicidal agents” (BASF AKTIENGESELLSCHAFT, priority 1997, dated 1999).

Assays:
[1] = test system: Cyperus serotinus, Rottb.; experiment: Preemergence weed control under flooded paddy conditions, CYPSE (Flatsedge); format: in vivo; settings: preemergence, rated three to four weeks after treatment; note: meaning of each grade not given here
[2] = test system: Cyperus iria; experiment: Postemergence weed control under flooded paddy conditions, CYPIR (Rice Flatsedge); format: in vivo; settings: rated three to four weeks after treatment
[3] = test system: Echinochloa oryzoides (Ard.) Fritsch.; experiment: Postemergence weed control under flooded paddy conditions, ECHORC (Watergrass (Calif.)); format: in vivo; settings: rated three to four weeks after treatment
[4] = test system: Oryza sativa, (L.) Tebonnet; experiment: Rice tolerance to post-transplant applications under flooded paddy conditions (Example 187), ORYSAT (Rice, Tebonnet); settings: rated three to four weeks after treatment; note: meaning of each grade not given here
[5] = test system: Cyperus serotinus, Rottb.; experiment: Postemergence weed control under flooded paddy conditions, CYPSE (Flatsedge); format: in vivo; settings: rated three to four weeks after treatment
[6] = test system: Sagittaria pygmaea, L.; experiment: Postemergence weed control under flooded paddy conditions, SAGPY (Arrowhead (Pygmaea)); format: in vivo; settings: rated three to four weeks after treatment
[7] = test system: Monochoria vaginalis, Presl.; experiment: Postemergence weed control under flooded paddy conditions, MOOVA (Monochoria); format: in vivo; settings: rated three to four weeks after treatment
[8] = test system: Monochoria vaginalis, Presl.; experiment: Preemergence weed control under flooded paddy conditions, MOOVA (Monochoria); format: in vivo; settings: preemergence, flooded paddy, rated three to four weeks after treatment; note: meaning of each grade not given here
[9] = test system: Sagittaria pygmaea, L.; experiment: Preemergence weed control under flooded paddy conditions, SAGPY (Arrowhead (Pygmaea)); format: in vivo; settings: preemergence, flooded paddy, rated three to four weeks after treatment; note: meaning of each grade not given here
[10] = test system: Oryza sativa, (L.) Tebonnet; experiment: Rice tolerance to post-transplant applications under flooded paddy conditions (Example 188), ORYSAT (Rice, Tebonnet); settings: rated three to four weeks after treatment
[11] = test system: Cyperus iria; experiment: Preemergence weed control under flooded paddy conditions, CYPIR (Rice Flatsedge); format: in vivo; settings: preemergence, flooded paddy, rated three to four weeks after treatment; note: meaning of each grade not given here
[12] = test system: Echinochloa oryzoides (Ard.) Fritsch.; experiment: Preemergence weed control under flooded paddy conditions, ECHORC (Watergrass (Calif.)); format: in vivo; settings: preemergence, flooded paddy, rated three to four weeks after treatment; note: meaning of each grade not given here

CC(C)S(=O)(=O)NC(=O)c1nsc2ccc(-n3c(=O)cc(C(F)(F)F)n(C)c3=O)cc12 [Example 362, 1,2-Benzisothiazole-3-carboxamide, 5-[3,6-dihydro-3-methyl-2,6-dioxo-4-(trifluoromethyl)-1(2H)-pyrimidinyl]-N-(isopropylsulfonyl)-]
herbicidal effect rating, CYPSE ([1]; Rate 0.0320 kg/ha): 6.0
herbicidal effect rating, CYPSE ([1]; Rate 0.0620 kg/ha): 9.0
herbicidal effect rating, CYPSE ([1]; Rate 0.1250 kg/ha): 9.0
herbicidal effect rating, CYPSE ([1]; Rate 0.2500 kg/ha): 9.0
herbicidal effect rating, CYPSE ([1]; Rate 0.5000 kg/ha): 9.0
herbicidal effect rating, CYPIR ([2]; Rate 0.0320 kg/ha): 4.0
herbicidal effect rating, CYPIR ([2]; Rate 0.0620 kg/ha): 7.0
herbicidal effect rating, CYPIR ([2]; Rate 0.1250 kg/ha): 8.0
herbicidal effect rating, CYPIR ([2]; Rate 0.2500 kg/ha): 4.0
herbicidal effect rating, ECHORC ([3]; Rate 0.0320 kg/ha): 0.0
herbicidal effect rating, ECHORC ([3]; Rate 0.0620 kg/ha): 2.0
herbicidal effect rating, ECHORC ([3]; Rate 0.1250 kg/ha): 7.0
herbicidal effect rating, ECHORC ([3]; Rate 0.2500 kg/ha): 9.0
herbicidal effect rating ORYSAT ([4]; Rate 0.0320 kg/ha): 4.0
herbicidal effect rating ORYSAT ([4]; Rate 0.0620 kg/ha): 4.0
herbicidal effect rating ORYSAT ([4]; Rate 0.1250 kg/ha): 4.0
herbicidal effect rating ORYSAT ([4]; Rate 0.2500 kg/ha): 6.0
herbicidal effect rating ORYSAT ([4]; Rate 0.5000 kg/ha): 8.0
herbicidal effect rating, CYPSE ([5]; Rate 0.0320 kg/ha): 0.0
herbicidal effect rating, CYPSE ([5]; Rate 0.0620 kg/ha): 9.0
herbicidal effect rating, CYPSE ([5]; Rate 0.1250 kg/ha): 9.0
herbicidal effect rating, CYPSE ([5]; Rate 0.2500 kg/ha): 9.0
herbicidal effect rating, SAGPY ([6]; Rate 0.0320 kg/ha): 0.0
herbicidal effect rating, SAGPY ([6]; Rate 0.0620 kg/ha): 0.0
herbicidal effect rating, SAGPY ([6]; Rate 0.1250 kg/ha): 4.0
herbicidal effect rating, SAGPY ([6]; Rate 0.2500 kg/ha): 8.0
herbicidal effect rating, MOOVA ([7]; Rate 0.0320 kg/ha): 9.0
herbicidal effect rating, MOOVA ([7]; Rate 0.0620 kg/ha): 9.0
herbicidal effect rating, MOOVA ([7]; Rate 0.1250 kg/ha): 9.0
herbicidal effect rating, MOOVA ([7]; Rate 0.2500 kg/ha): 9.0
herbicidal effect rating, MOOVA ([8]; Rate 0.0320 kg/ha): 9.0
herbicidal effect rating, MOOVA ([8]; Rate 0.0620 kg/ha): 9.0
herbicidal effect rating, MOOVA ([8]; Rate 0.1250 kg/ha): 9.0
herbicidal effect rating, MOOVA ([8]; Rate 0.2500 kg/ha): 9.0
herbicidal effect rating, MOOVA ([8]; Rate 0.5000 kg/ha): 9.0
herbicidal effect rating, SAGPY ([9]; Rate 0.0320 kg/ha): 9.0
herbicidal effect rating, SAGPY ([9]; Rate 0.0620 kg/ha): 9.0
herbicidal effect rating, SAGPY ([9]; Rate 0.1250 kg/ha): 9.0
herbicidal effect rating, SAGPY ([9]; Rate 0.2500 kg/ha): 9.0
herbicidal effect rating, SAGPY ([9]; Rate 0.5000 kg/ha): 9.0
herbicidal effect rating, ORYSAT (rice tolerance) ([10]; Rate 0.0320 kg/ha): 3.0
herbicidal effect rating, ORYSAT (rice tolerance) ([10]; Rate 0.0620 kg/ha): 3.0
herbicidal effect rating, ORYSAT (rice tolerance) ([10]; Rate 0.1250 kg/ha): 3.0
herbicidal effect rating, ORYSAT (rice tolerance) ([10]; Rate 0.2500 kg/ha): 6.0
herbicidal effect rating, CYPIR ([11]; Rate 0.0320 kg/ha): 3.0
herbicidal effect rating, CYPIR ([11]; Rate 0.0620 kg/ha): 5.0
herbicidal effect rating, CYPIR ([11]; Rate 0.1250 kg/ha): 5.0
herbicidal effect rating, CYPIR ([11]; Rate 0.2500 kg/ha): 7.0
herbicidal effect rating, CYPIR ([11]; Rate 0.5000 kg/ha): 9.0
herbicidal effect rating, ECHORC ([12]; Rate 0.0320 kg/ha): 4.0
herbicidal effect rating, ECHORC ([12]; Rate 0.0620 kg/ha): 7.0
herbicidal effect rating, ECHORC ([12]; Rate 0.1250 kg/ha): 7.0
herbicidal effect rating, ECHORC ([12]; Rate 0.2500 kg/ha): 9.0
herbicidal effect rating, ECHORC ([12]; Rate 0.5000 kg/ha): 9.0
